In assay [1] the test system is HH MRSA 714 (dfrG). Description: MIC against clinical isolate HH MRSA 714. The format is cell-based. Conditions: Staphylococcus aureus.
For assay [2], the system named is UCH MRSA 1 (dfrG). The assay can be described thus: MIC against clinical isolate UCH MRSA 1. The format is cell-based, Staphylococcus aureus.
Assay [3] deals with HH MRSA 1144 (dfrA). The assay can be described thus: MIC against clinical isolate HH MRSA 1144. The format is cell-based, Staphylococcus aureus.
Assay [4] relates to UCH MRSA 127 (dfrG). The assay can be described thus: MIC against clinical isolate UCH MRSA 127. The format is cell-based, Staphylococcus aureus.
The subject of assay [5] is UCH MRSA 115 (dfrA). The assay can be described thus: MIC against clinical isolate UCH MRSA 115. The format is cell-based, Staphylococcus aureus.
Assay [6] concerns UCH MRSA 121 (dfrG). The assay can be described thus: MIC against clinical isolate UCH MRSA 121. The format is cell-based, Staphylococcus aureus.
Assay [7] relates to UCH MSSA 1 (dfrG). The assay can be described thus: MIC against clinical isolate UCH MSSA 1. The format is cell-based, Staphylococcus aureus.
The test system of assay [8] is S. aureus with dfrB point mutations. Conditions: point mutations in chromosomal dfrB, ref Dale et al., 1997, cited from earlier work.
For assay [9], the system named is ATCC 43300 (Sa43300). Description: MIC against ATCC 43300. The format is cell-based, Staphylococcus aureus.
In assay [10] the test system is multi-drug resistant MRSA ST398 (dfrK). Conditions: dfrK in swine MRSA ST398; ref Kadlec et al. 2010; cited from earlier work.
The subject of assay [11] is HH MRSA 1184 (dfrK). Description: MIC against clinical isolate HH MRSA 1184. The format is cell-based, Staphylococcus aureus.
Assay [12] concerns TMP-resistant MRSA and MSSA clinical isolates. The assay can be described thus: MIC against panel of TMP-resistant clinical isolates. The format is cell-based, Staphylococcus aureus.
Assay [13] has the same test system. Description: Clinical antibiotic susceptibility. The format is cell-based, Staphylococcus aureus. Conditions: all strains; CLSI breakpoint standards.
Where [14] appears, read: Staphylococcus aureus, ATCC43300.
The mark [15] stands for this setting: ATCC 43300, no TMP resistance gene.
Where [16] appears, read: HH MRSA 1144 (dfrA), SSTI isolate.
Setting [17] is: UCH MRSA 127 (dfrG), SSTI isolate.
Where [18] appears, read: UCH MRSA 115 (dfrA), SSTI isolate.
Setting [19] is: UCH MRSA 121 (dfrG), sputum isolate.
[20] abbreviates: HH MRSA 1184 (dfrK), sputum isolate.
The mark [21] stands for this setting: UCH MSSA 1 (dfrG), sinus cavity isolate.

Converted amounts (≈) assume the structure as drawn. Some results are limits rather than exact numbers.

As a reminder, the MIC is the smallest concentration in the dilution series that meets the test's criterion for growth inhibition. `Cc1cc(NS(=O)(=O)c2ccc(N)cc2)no1` [SMX, sulfamethoxazole, reference compound]: the MIC in assay [1] is > 500 µg/mL; in assay [2] (Staphylococcus aureus, MRSA), > 500 µg/mL; in assay [3] (Staphylococcus aureus, MRSA), > 500 µg/mL; in [4] (Staphylococcus aureus, MRSA), 16 µg/mL (≈ 63.2 µM); in assay [5] (Staphylococcus aureus, MRSA), 500 µg/mL (≈ 1970 µM); in [6] (Staphylococcus aureus, MRSA), > 500 µg/mL. Moreover, the MIC in assay [7] (Staphylococcus aureus, MSSA) is > 500 µg/mL.
Consider `COc1cc(Cc2cnc(N)nc2N)cc(OC)c1OC` [TMP, trimethoprim, reference compound], for which the MIC in assay [1] was > 1000 µg/mL; in [8] (1990s) it was 256 µg/mL (≈ 882 µM); in assay [9] (setting [14]) it was 0.312 µg/mL (≈ 1.08 µM); in assay [2] (Staphylococcus aureus, MRSA), > 1000 µg/mL; in [4] (Staphylococcus aureus, MRSA), > 1000 µg/mL; in assay [10], 256 µg/mL (≈ 882 µM). For the same compound, the MIC is 250 µg/mL (≈ 861 µM) in assay [5] (Staphylococcus aureus, MRSA); > 1000 µg/mL in [6] (Staphylococcus aureus, MRSA); > 1000 µg/mL in assay [11] (Staphylococcus aureus, MRSA); > 1000 µg/mL in assay [7] (Staphylococcus aureus, MSSA). The “Increase in MIC” value in assay [8] is given as ~ 800 fold.
Turning to `CCc1nc(N)nc(N)c1C#C[C@@H](C)c1cc(-c2ccc(C(=O)O)cc2)ccc1OC` [UCP1164], the MIC is 0.0391 µg/mL (≈ 0.0939 µM) in assay [9] (setting [15]); 2.5 µg/mL (≈ 6 µM) in assay [2] (UCH MRSA 1 (dfrG), blood isolate); 5 µg/mL (≈ 12 µM) in assay [3] (setting [16]); 2.5 µg/mL (≈ 6 µM) in assay [4] (setting [17]); 10 µg/mL (≈ 24 µM) in [5] (setting [18]); 5 µg/mL (≈ 12 µM) in assay [6] (setting [19]). For the same compound, the values for the MIC in assay [11] (setting [20]) and in assay [7] (setting [21]) were 0.625 µg/mL (≈ 1.5 µM) and 5 µg/mL (≈ 12 µM), respectively.
Regarding `CCc1nc(N)nc(N)c1C#C[C@@H](C)c1cc(OC)cc(-c2ccc(C(=O)O)cc2)c1` [UCP1172], the MIC in [9] (setting [15]) was 0.0098 µg/mL (≈ 0.0235 µM); in assay [3] (setting [16]) it was 5 µg/mL (≈ 12 µM); in assay [4] (setting [17]), 0.3125 µg/mL (≈ 0.75 µM); in assay [5] (setting [18]), 5 µg/mL (≈ 12 µM); in [6] (setting [19]) it was 0.625 µg/mL (≈ 1.5 µM); in assay [11] (setting [20]), 0.3125 µg/mL (≈ 0.75 µM). The “MIC against strains possessing dfrA” value in assay [12] (dfrA-possessing strains) is recorded as “does not significantly inhibit”.
In the case of `CCc1nc(N)nc(N)c1C#CC(C)c1cc2c(c(-c3ccc(C(=O)O)cc3)c1)OCO2` (stereo not shown) [UCP1191], the “MIC against strains carrying dfrG and dfrK” value in assay [12] (dfrG- and dfrK-possessing strains) is 0.1563−0.625 μg/mL. Further, the minimal inhibitory concentration (MIC) in assay [3] (setting [16]) came out at 10 µg/mL (≈ 23.2 µM); in [4] (setting [17]) it was 0.1563 µg/mL (≈ 0.363 µM); in assay [5] (setting [18]), 20 µg/mL (≈ 46.5 µM); in assay [6] (setting [19]), 0.625 µg/mL (≈ 1.45 µM); in assay [11] (setting [20]), 0.1563 µg/mL (≈ 0.363 µM); in assay [7] (setting [21]), 0.3125 µg/mL (≈ 0.726 µM).
Regarding `CCc1nc(N)nc(N)c1C#C[C@@H](C)c1cc2c(c(-c3ccc(C(=O)O)cc3)c1)OCO2` [UCP1205, (S)-4-(6-(4-(2,4-diamino-6-ethylpyrimidin-5-yl)but-3-yn-2-yl)benzo[d][1,3]dioxol-4-yl)benzoic acid], the MIC is 0.625 µg/mL (≈ 1.45 µM) in assay [1]; 0.625 µg/mL (≈ 1.45 µM) in assay [2] (Staphylococcus aureus, MRSA); > 10 µg/mL in assay [3] (Staphylococcus aureus, MRSA); 0.312 µg/mL (≈ 0.726 µM) in assay [4] (Staphylococcus aureus, MRSA); > 10 µg/mL in assay [5] (Staphylococcus aureus, MRSA); 0.625 µg/mL (≈ 1.45 µM) in assay [6] (Staphylococcus aureus, MRSA). Moreover, the MIC in assay [11] (Staphylococcus aureus, MRSA) is 0.312 µg/mL (≈ 0.726 µM); in assay [7] (Staphylococcus aureus, MSSA), 0.312 µg/mL (≈ 0.726 µM).
As for `CCc1nc(N)nc(N)c1C#C[C@H](C)c1cc2c(c(-c3ccc(C(=O)O)cc3)c1)OCO2` [UCP1206, (R)-4-(6-(4-(2,4-diamino-6-ethylpyrimidin-5-yl)but-3-yn-2-yl)benzo[d][1,3]dioxol-4-yl)benzoic acid], the MIC in [1] is 2.5 µg/mL (≈ 5.81 µM); in assay [9] (setting [14]), 0.0098 µg/mL (≈ 0.0228 µM); in assay [2] (Staphylococcus aureus, MRSA) it was 2.5 µg/mL (≈ 5.81 µM); in assay [3] (Staphylococcus aureus, MRSA), > 10 µg/mL; in assay [4] (Staphylococcus aureus, MRSA), 1.25 µg/mL (≈ 2.9 µM); in assay [5] (Staphylococcus aureus, MRSA), > 10 µg/mL. Moreover, the MIC in assay [6] (Staphylococcus aureus, MRSA) was found to be 2.5 µg/mL (≈ 5.81 µM); in assay [11] (Staphylococcus aureus, MRSA), 1.25 µg/mL (≈ 2.9 µM); in [7] (Staphylococcus aureus, MSSA), 1.25 µg/mL (≈ 2.9 µM).
Turning to `CCCCCCCCCC(=O)N[C@@H](Cc1c[nH]c2ccccc12)C(=O)N[C@H](CC(N)=O)C(=O)N[C@@H](CC(=O)O)C(=O)N[C@@H]1C(=O)NCC(=O)N[C@@H](CCCN)C(=O)N[C@@H](CC(=O)O)C(=O)N[C@H](C)C(=O)N[C@@H](CC(=O)O)C(=O)NCC(=O)N[C@H](CO)C(=O)N[C@@H]([C@H](C)CC(=O)O)C(=O)N[C@@H](CC(=O)c2ccccc2N)C(=O)O[C@@H]1C` [daptomycin], the “Susceptibility based on breakpoint MICs” value in assay [13] was “susceptible”.
Still for that read-out and setting: the entry for `CC(=O)NC[C@H]1CN(c2ccc(N3CCOCC3)c(F)c2)C(=O)O1` [linezolid] is “susceptible”.
The same measure, in the same setting: the entry for `CO[C@H]1/C=C/O[C@@]2(C)Oc3c(C)c(O)c4c(O)c(c(/C=N/N5CCN(C)CC5)c(O)c4c3C2=O)NC(=O)/C(C)=C\C=C\[C@H](C)[C@H](O)[C@@H](C)[C@@H](O)[C@@H](C)[C@H](OC(C)=O)[C@@H]1C` [rifampin] is “susceptible”; for `CN[C@H](CC(C)C)C(=O)N[C@H]1C(=O)N[C@@H](CC(N)=O)C(=O)N[C@H]2C(=O)N[C@H]3C(=O)N[C@H](C(=O)N[C@H](C(=O)O)c4cc(O)cc(O)c4-c4cc3ccc4O)[C@H](O)c3ccc(c(Cl)c3)Oc3cc2cc(c3O[C@@H]2O[C@H](CO)[C@@H](O)[C@H](O)[C@H]2O[C@H]2C[C@](C)(N)[C@H](O)[C@H](C)O2)Oc2ccc(cc2Cl)[C@H]1O` [vancomycin] it is “susceptible”.

The values above are taken from PMC5228619 (Cell chemical biology, 2016).
